Laboratory results taken from patent publication US4196217A, “Hydroxylated amines with bacteriostatic activity” (priority 1978, dated 1980).
In brackets after ≈: the same amount, converted by molar mass. Several values for one entry are separate records, joined by “and”; a condition that tells them apart may be missing. Equal values may be shown once. Where a name gives a salt, the structure may show the parent alone. Read-outs that look alike come from different tables or passages of the source.

Assays:
Staphyloccus aureus = assay: bacteriostatic activity (MIC), Staphylococcus aureus; assay type: cell-based
Procedure: (§1) The medium containing the solution to be tested is inoculated in the form of three single striae with a 10^-5 times dilution of a bacterial culture aged 16 to 18 hours grown in salted peptone broth at a temperature of 37° C.
(§2) After inoculation, the media are stored at 37° C. for 48 hours, after which the bacterial growth is inspected. The MIC (minimum inhibiting concentrations) are expressed in micrograms of pure product per cubic centimeter of gelose medium required for inhibiting the culture (μg/cc). The control substance used is benzalconium chloride.
(§3) Tests were also carried out to determine the bacteriostatic activity of other compounds according to the invention by the method described above and in comparison with known substances, in particular with benzalconium chloride (compound T in the Tables).

Escherichia coli = assay: bacteriostatic activity (MIC), Escherichia coli; assay type: cell-based
Procedure: as §1, §2, §3

Pseudomonas aeruginosa = assay: bacteriostatic activity (MIC), Pseudomonas aeruginosa; assay type: cell-based
Procedure: as §1, §2, §3

Bacillus subtilis = assay: bacteriostatic activity (MIC), Bacillus subtilis; assay type: cell-based
Procedure: as §1, §2, §3

Moraxella glucidolytica = assay: bacteriostatic activity (MIC), Moraxella glucidolytica; assay type: cell-based; conditions: Table I, 37° C., 48 hours
Procedure: (§4) The medium containing the solution to be tested is inoculated in the form of three single striae with a 10^-5 times dilution of a bacterial culture aged 16 to 18 hours grown in salted peptone broth at a temperature of 37° C. After inoculation, the media are stored at 37° C. for 48 hours, after which the bacterial growth is inspected. The MIC (minimum inhibiting concentrations) are expressed in micrograms of pure product per cubic centimeter of gelose medium required for inhibiting the culture (μg/cc). The control substance used is benzalconium chloride.

Serratia = assay: bacteriostatic activity (MIC), Serratia; assay type: cell-based; conditions: Table I, 37° C., 48 hours
Procedure: as §4

Pneumobacille = assay: bacteriostatic activity (MIC), Pneumobacille; assay type: cell-based; conditions: Table I, 37° C., 48 hours
Procedure: as §4

Enterbacter cloacae = assay: bacteriostatic activity (MIC), Enterbacter cloacae; assay type: cell-based; conditions: Table I, 37° C., 48 hours
Procedure: as §4

Proteus vulgaris = assay: bacteriostatic activity (MIC), Proteus vulgaris; assay type: cell-based; conditions: Table I, 37° C., 48 hours
Procedure: as §4

[1] = Staphylococcus aureus, 48 h, Table VI, bacteriostase containing 20% of serum, read-out: M.I.C.
[2] = Staphylococcus aureus, 48 h, Table VI, bacteriostase without serum, read-out: M.I.C.
[3] = Escherichia coli, 48 h, Table VI, bacteriostase containing 20% of serum, read-out: M.I.C.
[4] = Escherichia coli, 48 h, Table VI, bacteriostase without serum, read-out: M.I.C.
[5] = Pseudomonas aeruginosa, 48 h, Table VI, bacteriostase containing 20% of serum, read-out: M.I.C.
[6] = Pseudomonas aeruginosa, 48 h, Table VI, bacteriostase without serum, read-out: M.I.C.
[7] = Bacillus subtilis, 48 h, Table VI, bacteriostase containing 20% of serum, read-out: M.I.C.
[8] = Bacillus subtilis, 48 h, Table VI, bacteriostase without serum, read-out: M.I.C.
[9] = Table I, with 20% of serum, 37° C., 48 hours
[10] = Table I, without serum, 37° C., 48 hours
[11] = Table VI, bacteriostase containing 20% of serum
[12] = Table VI, bacteriostase without serum

CCCCCCCCCCCCOCC(O)CN.Cl (stereo not shown) [Compound 2, 3-dodecyloxy-2-hydroxy-1-aminopropane hydrochloride]
MIC (Staphyloccus aureus; [1]): 75 µg/mL | MIC (Staphyloccus aureus; [2]): 10 µg/mL | MIC (Escherichia coli; [3]): 100 µg/mL | MIC (Escherichia coli; [4]): 20 µg/mL | MIC (Pseudomonas aeruginosa; [5]): 1200 µg/mL | MIC (Pseudomonas aeruginosa; [6]): 800 µg/mL | MIC (Bacillus subtilis; [7]): 30 µg/mL | MIC (Bacillus subtilis; [8]): 5 µg/mL

Br.CCCCCCCCCCOCC(O)CN (stereo not shown) [Compound 3, 3-decyloxy-2-hydroxy-1-aminopropane hydrobromide]
MIC (Staphyloccus aureus; [1]): 75 µg/mL | MIC (Staphyloccus aureus; [2]): 30 µg/mL | MIC (Escherichia coli; [3]): 60 µg/mL | MIC (Escherichia coli; [4]): 30 µg/mL | MIC (Pseudomonas aeruginosa; [5]): 250 µg/mL | MIC (Pseudomonas aeruginosa; [6]): 100 µg/mL | MIC (Bacillus subtilis; [7]): 50 µg/mL | MIC (Bacillus subtilis; [8]): 25 µg/mL

CCCCCCCCC(O)CN (stereo not shown) [Compound 4]
MIC (Staphyloccus aureus; [1]): 150 µg/mL (≈ 866 µM) | MIC (Staphyloccus aureus; [2]): 70 µg/mL (≈ 404 µM) | MIC (Escherichia coli; [3]): 200 µg/mL (≈ 1150 µM) | MIC (Escherichia coli; [4]): 125 µg/mL (≈ 721 µM) | MIC (Pseudomonas aeruginosa; [5]): 500 µg/mL (≈ 2890 µM) | MIC (Pseudomonas aeruginosa; [6]): 400 µg/mL (≈ 2310 µM) | MIC (Bacillus subtilis; [7]): 75 µg/mL (≈ 433 µM) | MIC (Bacillus subtilis; [8]): 20 µg/mL (≈ 115 µM)

CCCCCCCCCCOCC(O)C[N+](C)(C)C (stereo not shown) [Compound 5, 3-decyloxy-2-hydroxy-N,N,N-trimethyl-1-ammonium chloride]
MIC (Staphyloccus aureus; [1]): 50 µg/mL | MIC (Staphyloccus aureus; [2]): 25 µg/mL | MIC (Escherichia coli; [3]): 200 µg/mL | MIC (Escherichia coli; [4]): 125 µg/mL | solubility in water (solubility): soluble in water | MIC (Pseudomonas aeruginosa; [5]): 750 µg/mL | MIC (Pseudomonas aeruginosa; [6]): 600 µg/mL | MIC (Bacillus subtilis; [7]): 40 µg/mL | MIC (Bacillus subtilis; [8]): 25 µg/mL

CCCCCCCCOCC(O)CN.Cl (stereo not shown) [Compound 6, 3-octyloxy-2-hydroxy-1-aminopropane hydrochloride]
MIC (Staphyloccus aureus; [1]): > 250 µg/mL | MIC (Staphyloccus aureus; [2]): > 150 µg/mL | MIC (Escherichia coli; [3]): 300 µg/mL | MIC (Escherichia coli; [4]): 150 µg/mL | MIC (Pseudomonas aeruginosa; [5]): 500 µg/mL | MIC (Pseudomonas aeruginosa; [6]): 300 µg/mL | MIC (Bacillus subtilis; [7]): 200 µg/mL | MIC (Bacillus subtilis; [8]): 150 µg/mL

CCCCCCCCCC(O)CN (stereo not shown) [Compound 7]
MIC (Staphyloccus aureus; [1]): 150 µg/mL (≈ 801 µM) | MIC (Staphyloccus aureus; [2]): 75 µg/mL (≈ 400 µM) | MIC (Escherichia coli; [3]): 150 µg/mL (≈ 801 µM) | MIC (Escherichia coli; [4]): 75 µg/mL (≈ 400 µM) | MIC (Pseudomonas aeruginosa; [5]): 500 µg/mL (≈ 2670 µM) | MIC (Pseudomonas aeruginosa; [6]): 200 µg/mL (≈ 1070 µM) | MIC (Bacillus subtilis; [7]): 50 µg/mL (≈ 267 µM) | MIC (Bacillus subtilis; [8]): 30 µg/mL (≈ 160 µM)

CCCCCCCCCCCC(O)CN (stereo not shown) [Compound 8, 2-hydroxy-1-amino tridecane]
MIC (Staphyloccus aureus; [1]): 40 µg/mL (≈ 186 µM) | MIC (Staphyloccus aureus; [2]): 20 µg/mL (≈ 92.9 µM) | MIC (Escherichia coli; [3]): 75 µg/mL (≈ 348 µM) | MIC (Escherichia coli; [4]): 10 µg/mL (≈ 46.4 µM) | MIC (Pseudomonas aeruginosa; [5]): > 1500 µg/mL | MIC (Pseudomonas aeruginosa; [6]): > 1000 µg/mL | MIC (Bacillus subtilis; [7]): 30 µg/mL (≈ 139 µM) | MIC (Bacillus subtilis; [8]): 3 µg/mL (≈ 13.9 µM)

CCCCCCCCCCCCCCOCC(O)CN (stereo not shown) [Compound 9, 3-tetradecyloxy-2-hydroxyamino-1-propane hydrochloride]
MIC (Staphyloccus aureus; [1]): 50 µg/mL | MIC (Staphyloccus aureus; [2]): 10 µg/mL | MIC (Escherichia coli; [3]): > 1000 µg/mL | MIC (Escherichia coli; [4]): > 500 µg/mL | solubility in water (solubility): soluble in water | MIC (Pseudomonas aeruginosa; [5]): 2500 µg/mL | MIC (Pseudomonas aeruginosa; [6]): 1250 µg/mL | MIC (Bacillus subtilis; [7]): 30 µg/mL | MIC (Bacillus subtilis; [8]): 7 µg/mL

CCCCCCCCCCCCCCCCCCOCC(O)CN.Cl (stereo not shown) [Compound 10, 3-octadecyloxy-2-hydroxy-1-aminopropane hydrochloride]
MIC (Staphyloccus aureus; [1]): > 500 µg/mL | MIC (Staphyloccus aureus; [2]): > 300 µg/mL | MIC (Escherichia coli; [3]): > 1000 µg/mL | MIC (Escherichia coli; [4]): > 500 µg/mL | MIC (Pseudomonas aeruginosa; [5]): > 2500 µg/mL | MIC (Pseudomonas aeruginosa; [6]): 1300 µg/mL | MIC (Bacillus subtilis; [7]): > 500 µg/mL | MIC (Bacillus subtilis; [8]): > 300 µg/mL

COCC(O)CN (stereo not shown) [Compound 11]
MIC (Staphyloccus aureus; [1]): > 500 µg/mL | MIC (Staphyloccus aureus; [2]): > 300 µg/mL | MIC (Escherichia coli; [3]): > 1000 µg/mL | MIC (Escherichia coli; [4]): > 500 µg/mL | MIC (Pseudomonas aeruginosa; [5]): > 2500 µg/mL | MIC (Pseudomonas aeruginosa; [6]): > 1300 µg/mL | MIC (Bacillus subtilis; [7]): > 500 µg/mL | MIC (Bacillus subtilis; [8]): > 300 µg/mL

CCOCC(O)CN.Cl (stereo not shown) [Compound 12, 3-ethoxy-2-hydroxy-1-aminopropane hydrochloride]
MIC (Staphyloccus aureus; [1]): > 500 µg/mL | MIC (Staphyloccus aureus; [2]): > 300 µg/mL | MIC (Escherichia coli; [3]): > 1000 µg/mL | MIC (Escherichia coli; [4]): > 500 µg/mL | MIC (Pseudomonas aeruginosa; [5]): > 2500 µg/mL | MIC (Pseudomonas aeruginosa; [6]): > 1300 µg/mL | MIC (Bacillus subtilis; [7]): > 500 µg/mL | MIC (Bacillus subtilis; [8]): > 300 µg/mL

CCCCCCCCCCOCC(O)CN (stereo not shown) [Compound 13, 3-decyloxy-2-hydroxy-1-aminopropane]
MIC (Staphyloccus aureus; [1]): 80 µg/mL (≈ 346 µM) | MIC (Staphyloccus aureus; [2]): 40 µg/mL (≈ 173 µM) | MIC (Escherichia coli; [3]): 250 µg/mL (≈ 1080 µM) | MIC (Escherichia coli; [4]): 50 µg/mL (≈ 216 µM) | MIC (Pseudomonas aeruginosa; [5]): 400 µg/mL (≈ 1730 µM) | MIC (Pseudomonas aeruginosa; [6]): 150 µg/mL (≈ 648 µM) | MIC (Bacillus subtilis; [7]): 40 µg/mL (≈ 173 µM) | MIC (Bacillus subtilis; [8]): 20 µg/mL (≈ 86.4 µM)

CCCCCCCCCCSCC(O)CN (stereo not shown) [Compound 14, 3-decanethio-2-hydroxy-1-aminopropane hydrochloride]
MIC (Staphyloccus aureus; [1]): 70 µg/mL | MIC (Staphyloccus aureus; [2]): 10 µg/mL | MIC (Escherichia coli; [3]): 250 µg/mL | MIC (Escherichia coli; [4]): 50 µg/mL | solubility in alcohol (solubility; alcohol): soluble in alcohol | MIC (Pseudomonas aeruginosa; [5]): 600 µg/mL | MIC (Pseudomonas aeruginosa; [6]): 200 µg/mL | MIC (Bacillus subtilis; [7]): 30 µg/mL | MIC (Bacillus subtilis; [8]): 5 µg/mL

benzalconium chloride [T, reference compound]
MIC (Staphyloccus aureus; [9]): 12 μg/cc | MIC (Staphyloccus aureus; [10]): 1.5 μg/cc | M.I.C. (Staphyloccus aureus; [11]): 10 μg/cc and 5 μg/cc | M.I.C. (Staphyloccus aureus; [12]): 1.5 μg/cc and 1 μg/cc | MIC (Moraxella glucidolytica; with 20% of serum): 150 μg/cc | MIC (Moraxella glucidolytica; without serum): 75 μg/cc | MIC (Escherichia coli; [9]): 300 μg/cc | MIC (Escherichia coli; [10]): 125 μg/cc | M.I.C. (Escherichia coli; [11]): 200 μg/cc and 250 μg/cc and 300 μg/cc | M.I.C. (Escherichia coli; [12]): 125 μg/cc and 150 μg/cc | MIC (Serratia; with 20% of serum): 30 μg/cc | MIC (Serratia; without serum): 10 μg/cc | MIC (Pneumobacille; with 20% of serum): 75 μg/cc | MIC (Pneumobacille; without serum): 35 μg/cc | MIC (Enterbacter cloacae; with 20% of serum): 75 μg/cc | MIC (Enterbacter cloacae; without serum): 20 μg/cc | MIC (Pseudomonas aeruginosa; [9]): 850 μg/cc | MIC (Pseudomonas aeruginosa; [10]): 600 μg/cc | M.I.C. (Pseudomonas aeruginosa; [11]): 750 μg/cc and 850 μg/cc and 1200 μg/cc and 1000 μg/cc | M.I.C. (Pseudomonas aeruginosa; [12]): 500 μg/cc and 600 μg/cc and 700 μg/cc | MIC (Proteus vulgaris; with 20% of serum): 75 μg/cc | MIC (Proteus vulgaris; without serum): 35 μg/cc | MIC (Bacillus subtilis; [9]): 7.5 μg/cc | MIC (Bacillus subtilis; [10]): 2.5 μg/cc | M.I.C. (Bacillus subtilis; [11]): 2.5 μg/cc and 4 μg/cc | M.I.C. (Bacillus subtilis; [12]): 1 μg/cc and 2 μg/cc and 1.5 μg/cc
